Among the data in US9732060B2, “Aminotriazine derivative and pharmaceutical composition comprising the same” (Shionogi & Co., Ltd., priority 2013, dated 2017) are IC50 values, retold here.

The term IC50 denotes the concentration at which inhibition is half-maximal.

For assay [1], the target named is T1, human P2X3 receptor (Homo sapiens (Human), UniProt P56373). The experiment in a line: Evaluation of human P2X3 receptor inhibitory activity (FLIPR Ca fluorescence, ATP-evoked). In kind it is cell-based. The conditions noted are these: C6BU-1 cells stably expressing human P2X3 receptor. How it is done: Stably expressing cell line (C6BU-1 cell transfected with human P2X3 receptor gene (GenBank accession number Y07683) was used. The cells were seeded in a 384-well PDL-coated microtiter plate at a concentration of 3000 cells/well and cultured in the medium (8.3% fetal bovine serum, 8.3% horse serum, and 1% antibiotic and antifungal in DMEM) for one day at 37° C. under 5% carbon dioxide atmosphere. The medium was replaced with 4 μM Fluo-3-AM solution (20 mM HEPES, 137 mM NaCl, 2.7 mM KCl, 0.9 mM MgCl2, 5.0 mM CaCl2, 5.6 mM D-glucose, 2.5 mM probenecid, 0.5% BSA, and 0.04% Pluronic P-127, pH 7.5) and incubated at 37° C. under 5% dioxide carbon atmosphere for one hour. The plate was washed with washing buffer (20 mM HEPES, 137 mM NaCl, 2.7 mM KCl, 0.9 mM MgCl2, 5.0 mM CaCl2, 5.6 mM D-glucose, 2.5 mM probenecid, pH 7.5), and each well was added with 20 μL of the washing buffer. The plate was placed in High-Throughput Screening System FLIPR 384 (Molecular Device Co.). Measurement of fluorescence intensity by […] was started, and 20 μL of DMSO solutions containing different concentrations of the test compound as prepared by dilution with dilution buffer (20 mM HEPES, 137 mM NaCl, 2.7 mM KCl, 0.9 mM MgCl2, 5.0 mM CaCl2, 5.6 mM D-glucose, 2.5 mM probenecid, 0.1% Pluronic F-127, pH 7.5) were dispensed to each well through the built-in automatic dispenser. Five minutes after, 150 nM ATP solution (25 μL) prepared by dilution with the dilution buffer was dispensed through the built-in automatic dispenser, and the measurement of fluorescence intensity was continued for 4 min. For each well, the specific maximum fluorescence intensity was calculated as the ratio of the maximum fluorescence intensity after addition of the ATP solution to the fluorescence intensity at the starting of the measurement. […] The specific maximum fluorescence intensify and IC50 were calculated using Spotfire (Science & Technology Systems. Inc.)

Assay [2] deals with T1, human P2X3 receptor. The experiment in a line: Evaluation of human P2X3 receptor inhibitory activity in the presence of human serum albumin (HSA). The conditions noted are these: in the presence of 1% HSA (final concentration). In kind it is cell-based. How it is done:
Stably expressing cell line (C6BU-1 cell transfected with human P2X3 receptor gene (GenBank accession number Y07683; was used. The cells were seeded in a 96-well microtiter plate at a concentration of 8000 cells/well and cultured in the medium (7.0% fetal bovine serum, 7.0% horse serum, 1% antibiotic and antifungal, and 2.0% glutamine in DMEM) for one day at 37° C. under 5% carbon dioxide atmosphere. The medium was replaced with 4 μM Fluo-3-AM solution (20 mM HEPES, 137 mM NaCl, 5.37 mM KCl, 0.9 mM MgCl2, 1.26 mM CaCl2, 5.6 mM D-glucose, 2.5 mM probenecid, 0.5% BSA, and 0.04% Pluronic F-127, pH 7.5) and incubated at 37° C. under 5% dioxide carbon atmosphere for one hour. The plate was washed with washing buffer (20 mM HEPES, 137 mM NaCl, 5.27 mM KCl, 0.9 mM MgCl2, 1.26 mM CaCl2, 5.6 mM D-glucose, 2.5 mM probenecid, pH 7.5), and each well was added with 40 μL of this buffer. The plate was placed in High-Throughput Screening System FDSS 3000 (Hamamatsu Photonics K.K.). Measurement of fluorescence intensity by FDSS 3000 was started, and 40 μL of DMSO solutions containing 1% HSA (final concentrations) different concentrations of the test compound as prepared by dilution with dilution buffer (20 mM HEPES, 137 mM NaCl, 5.27 mM KCl, 0.9 mM MgCl2, 1.26 mM CaCl2, 5.6 mM D-glucose, 2.5 mM probenecid, 0.1% Pluronic F-127, pH 7.5) were dispensed to each well through the built-in automatic dispenser. Five minutes after, 50 nM ATP solution (50 μL) prepared by dilution with the dilution buffer was dispensed through the built-in automatic dispenser, and the measurement of fluorescence intensity was continued for 4 min. For each well, the specific maximum fluorescence intensity was calculated as the ratio of the maximum fluorescence intensity after addition of the ATP solution to the fluorescence intensity at the starting of the measurement. […] FDSS software (Hamamatsu Photonics K.K.) was used for calculation of the specific maximum fluorescence intensity. IC50 was calculated using Microsoft Excel (Microsoft Corporation) and XLfit (idbs Ltd.)

T1 sequence (P56373 whole entry): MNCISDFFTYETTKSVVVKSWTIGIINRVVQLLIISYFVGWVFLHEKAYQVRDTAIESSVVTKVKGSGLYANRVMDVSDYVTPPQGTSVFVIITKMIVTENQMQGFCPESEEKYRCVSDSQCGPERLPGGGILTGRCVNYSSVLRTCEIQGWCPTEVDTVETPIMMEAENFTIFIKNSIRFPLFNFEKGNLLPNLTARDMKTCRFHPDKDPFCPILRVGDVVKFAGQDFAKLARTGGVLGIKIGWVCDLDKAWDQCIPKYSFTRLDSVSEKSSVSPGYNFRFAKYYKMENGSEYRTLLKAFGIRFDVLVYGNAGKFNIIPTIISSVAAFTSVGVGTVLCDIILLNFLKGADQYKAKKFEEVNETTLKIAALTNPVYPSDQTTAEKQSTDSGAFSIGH

Regarding `Cc1ccc(Cn2c(=O)n(C[C@H](C)C(=O)O)c(=O)[nH]/c2=N\c2ccc(Oc3ccc(F)cn3)cc2)cc1` [Compound I-040], the 50% inhibitory concentration (IC50) in assay [1] was determined as 6 nM; in assay [2], 18 nM.
